Experimental data published in paper PMC12119672, “Development and evaluation of [^11C]DPA-813 and [^18F]DPA-814: novel TSPO PET tracers insensitive to human single nucleotide polymorphism rs6971” (European Journal of Nuclear Medicine and Molecular Imaging, 2025).
Where “and” joins values, the source holds several entries; their conditions need not be identical. Equal entries are not always repeated.

Legend:
[1] = Ex vivo metabolite analysis (plasma and brain) in wild-type rats; design: species or system rat; conditions: i.v.
Method: Metabolite analysis was conducted following the method outlined in a previous study. Wistar/RccHan (WIST) rats (Inotiv, the Netherlands) received intravenous injections of either [^11C]DPA-813 (30–50 MBq) or [^18F]DPA-814 (20–30 MBq). Rats were euthanized at 5, 15, and 45 min post-injection (n = 4 per time point). Plasma was separated from blood then processed through a C18 Sep-Pak (Waters, Milford, MA, USA). After washing with 3 mL of water to isolate the polar fraction, the non-polar fraction was eluted using 2 mL of methanol and 1 mL of water and subsequently analyzed by HPLC. The brain tissue was collected and homogenized in a mixture of MeCN and H2O (50/50, 4 mL) before centrifugation (5 min, 4000 rpm, 20 °C, Hettich Universal 32). The obtained supernatant was separated from the precipitate and analyzed via HPLC. Analytical HPLC was performed using a Dionex UltiMate 3000 HPLC system equipped with Chromeleon software (version 6.8), utilizing a Gemini C18 5-µm (10 × 250 mm) column (Phenomenex, Torrance, CA, USA). All fractions were assessed for radioactivity using a Wizard Gamma counter 1470 or 2480 (Wallac/PerkinElmer, Waltham, MA, USA).

[2] = tested on: EAE rat model (spinal cord); assay: PET imaging in the EAE rat model; assay type: in vivo; conditions: for higher uptake (AUC of time activity curve) in the spinal cord of EAE rats compared to CFA control: dynamic PET 60 min, peak of clinical symptoms
[3] = target: T1, rat TSPO (Rattus norvegicus, UniProt P16257); assay: Competitive binding to rat TSPO vs [3H]PK 11195 (Eurofins assay #226700, rat heart membranes); conditions: vs DPA-713 / DPA-714
T1 construct: Heart of male Wistar derived rats weighing 175 ± 25 g are used to prepare peripheral benzodiazepine membrane receptors [TSPO]; tissue Eurofins Panlabs Discovery Services assay #226700; host or cells: rat heart (male Wistar derived)
Method: Binding affinities (Ki) to wild-type (WT) and A147T human TSPO were assessed using a previously published method. HEK-293T cells were stably transfected with WT and A147T TSPO. Membranes were isolated from each cell line using an Ultra-Turrax hand-held homogeniser. These cells have been previously validated as an in vitro model for low- and high-affinity TSPO binding. […] Non-specific binding was determined using a saturating concentration (1 µM) of non-tritiated PK 11195. This non-specific binding contributed less than 10% of total binding. Reactions were halted by filtering through a 96-well glass-fibre filter plate (Millipore), followed by eight washes with ice-cold 50 mM Tris HCl. Microscint 0 was added to the plate and resultant radioactivity-related photons were collected by a Microbeta 2450 (PerkinElmer). Ki values were fit to a competition binding curve fit on non-specific binding-corrected data using GraphPad Prism 10.0 (GraphPad). Results are presented as mean ± standard error of the mean (SEM) from at least three independent experiments. Binding affinities (Ki) to rat TSPO were measured in duplicate by Eurofins Panlabs Discovery Services (assay #226700) (Supplementary Fig. 12). Single-dose (10 µM) off-target in vitro screening was performed in duplicate by Eurofins Panlabs Discovery Services (Supplementary Table 5).
Supplementary Figure 12 Dose-response curves and binding affinities of DPA-813 and DPA-814 showing competitive binding to rat TSPO vs [^3H]PK 11195. Method from Eurofins: Heart of male Wistar derived rats weighing 175 ± 25 g are used to prepare peripheral benzodiazepine membrane receptors [TSPO] in modified Tris-HCl buffer pH 7.5. A 0.25 mg aliquot is incubated with 0.3 nM [^3H]PK 11195 for 15 minutes at 25 °C. Non-specific binding is estimated in the presence of 100 μM Dipyridamole. Membranes are filtered and washed, the filters are then counted to determine [^3H]PK 11195 specifically bound.

[4] = tested on: TSPO in human MS tissues; assay: Autoradiography on genotyped human MS brain tissue (HAB, MAB, LAB); assay type: binding
Source text: Brain tissues from MS patients (n = 7) were used in this study and were obtained from the MS centre of the Amsterdam University Medical Centers (AUMC). For some patient material, several brain tissues were available. The MS centre received permission from the Ethical Committee of the AUMC (Amsterdam, The Netherlands) to perform autopsies for tissue use and access to medical records for research purposes. All patients and controls, or their next of kin, had given informed consent for autopsy and use of brain tissue for research purposes.
TSPO rs6971 SNP was determined with a Taqman assay (C_2512465_20, ThermoFisher Scientific, The Netherlands). DNA was isolated from human MS brain tissue cryosections using a QIAmp mini kit from Qiagen according to the manufacturer’s recommendation. The concentration of the isolated DNA was determined on a nanodrop (NanoVue Plus, Biochrom). DNA concentration ranged from 45 to 246 µg/mL. QPCR was performed on a QuantStudio (Applied Biosystems, The Netherlands). Synthetic DNA (300 bp) for the two TSPO SNP alleles, rs6971-A, and rs6971-G, was used as a control for the Taqman assay. DNA samples were diluted 1/100 in milliQ water, and 4.5 µL was used for the QPCR. Control DNA sequences were reconstituted in 10 ng/mL in milliQ water. The final QPCR solution contained 5 µL TaqPath proAmp master mix (ThermoFisher Scientific, The Netherlands), 0.5 µL Taqman SNP, and 4.5 µL DNA. Results of the Taqman assay are summarised in Supplementary Tables 4 and Supplementary Fig. 2.
Human MS tissue cryosections (20 μm) were mounted on glass slides, air-dried, and stored at − 80 °C until needed. Prior to use, the sections were washed three times in PBS for 5 min each, then dried under an airflow. […] For blocking experiments, tissue sections were co-incubated with PK 11195 (10 µM) and the tracer. After incubation, sections were washed for 90 s three times each in ice-cold PBS and then dipped in deionized water twice. The sections were air-dried and exposed to a phosphor screen BAS-IP SR 2025 (General Electric, Eindhoven, The Netherlands). Phosphor screens were subsequently imaged using a Typhoon FLA 7000 imager (General Electric, Eindhoven, The Netherlands), and signal intensity was quantified using ImageLab software (BioRad, Lunteren, The Netherlands).

[5] = Ex vivo biodistribution in wild-type rats; design: species or system rat; conditions: i.v.
Method: Wistar/RccHan (WIST) rats from Inotiv, the Netherlands, received intravenous injections via a tail vein catheter of either [^11C]DPA-813 (30–50 MBq) or [^18F]DPA-814 (20–30 MBq). The rats were euthanized at 5, 15, and 45 min post-injection (n = 4 per time point). Blood, heart, lungs, liver, spleen, kidney, urine, bone, brain, duodenum, small intestine, skin, and muscle were collected, weighed, and their radioactivity measured using a Wizard Gamma counter 1470 or 2480 (Wallac/PerkinElmer, Waltham, MA, USA). Entire organs were collected, except for larger organs like the liver and lungs, where only a portion was dissected. The radioactivity uptake in each organ was expressed as the percentage of the injected dose per gram of tissue (%ID/g).

## Cc1cc(C)n2nc(-c3ccc(OCC[18F])cc3)c(CC(=O)N(C)c3ccccc3)c2n1 [[^18F]DPA-814]
[1]; 5 min post-injection
  Brain, Parent (intact tracer): 99.5 ± 0.2%
  Plasma, Parent (Intact tracer): 88.1 ± 8.5%
[1]; 15 min post-injection
  Brain, Parent (intact tracer): 99.5 ± 0.3%
  Plasma, Parent (Intact tracer): 89.4 ± 0.9%
[1]; 45 min post-injection
  Brain, Parent (intact tracer): 99.3 ± 0.3%
  Plasma, Parent (Intact tracer): 79.1 ± 6.6% and 79%
[2]
  higher uptake (AUC of time activity curve) in the spinal cord of EAE rats compared to CFA control: 21%
[3]
  higher affinity to rat TSPO compared to the parent compound: 35 fold
[4]; HAB human MS tissue
  ratio of the binding quantifications [18F]DPA-814/[18F]DPA-714: 0.9 ± 0.1
[4]; LAB human MS tissue
  ratio of the binding quantifications [18F]DPA-814/[18F]DPA-714: 12.3 and 12
[4]; MAB human MS tissue
  ratio of the binding quantifications [18F]DPA-814/[18F]DPA-714: 1.5 ± 0.2
[5]; 5 min post-injection
  Biodistribution, Blood: 0.41 ± 0.2 %ID/g
  Biodistribution, Bone: 0.27±0.1 %ID/g
  Biodistribution, Brain: 0.25 ± 0.03 %ID/g
  Biodistribution, Duodenum: 1.44±0.1 %ID/g
  Biodistribution, Heart: 3.31±0.3 %ID/g
  Biodistribution, Kidney: 3.81±0.5 %ID/g
  Biodistribution, Liver: 1.82±0.5 %ID/g
  Biodistribution, Lungs: 21.91±1. %ID/g
  Biodistribution, Skin: 0.09±0.0 %ID/g
  Biodistribution, Small intestine: 0.92±0.1 %ID/g
  Biodistribution, Tail: 6.89±9.8 %ID/g
  Biodistribution, Urine: 0.01±0.0 %ID/g
  Biodistribution, muscle: 0.05±0.0 %ID/g
  Biodistribution, spleen: 3.00±0.6 %ID/g
[5]; 15 min post-injection
  Biodistribution, Blood: 0.31±0.1 %ID/g
  Biodistribution, Bone: 0.29±0.1 %ID/g
  Biodistribution, Brain: 0.28±0.0 %ID/g
  Biodistribution, Duodenum: 1.71±0.2 %ID/g
  Biodistribution, Heart: 4.39±0.2 %ID/g
  Biodistribution, Kidney: 4.59±0.6 %ID/g
  Biodistribution, Liver: 2.56 ± 0.2 %ID/g
  Biodistribution, Lungs: 24.43±2. %ID/g
  Biodistribution, Skin: 0.12±0.1 %ID/g
  Biodistribution, Small intestine: 1.26±0.1 %ID/g
  Biodistribution, Tail: 0.70±0.2 %ID/g
  Biodistribution, Urine: 0.01±0.0 %ID/g
  Biodistribution, muscle: 0.07±0.0 %ID/g
  Biodistribution, spleen: 4.85±0.2 %ID/g
[5]; 45 min post-injection
  Biodistribution, Blood: 0.15 ± 0.01 %ID/g
  Biodistribution, Bone: 0.22±0.0 %ID/g
  Biodistribution, Brain: 0.20 ± 0.02 %ID/g
  Biodistribution, Duodenum: 1.43±0.1 %ID/g
  Biodistribution, Heart: 4.05±0.3 %ID/g
  Biodistribution, Kidney: 4.10±0.2 %ID/g
  Biodistribution, Liver: 1.97±0.4 %ID/g
  Biodistribution, Lungs: 18.05±3. %ID/g
  Biodistribution, Skin: 0.12±0.0 %ID/g
  Biodistribution, Small intestine: 1.23±0.2 %ID/g
  Biodistribution, Tail: 1.30±0.5 %ID/g
  Biodistribution, Urine: 0.08±0.1 %ID/g
  Biodistribution, muscle: 0.08±0.0 %ID/g
  Biodistribution, spleen: 5.45±1.6 %ID/g

## CCN(CC)C(=O)Cc1c(-c2ccc(OCC[18F])cc2)nn2c(C)cc(C)nc12 [[^18F]DPA-714, reference compound]
[2]
  higher uptake (AUC of time activity curve) in the spinal cord of EAE rats compared to CFA control: 27%

## CCN(CC)C(=O)Cc1c(-c2ccc(O[11CH3])cc2)nn2c(C)cc(C)nc12 [[^11C]DPA-713, reference compound]
[2]; [11C]DPA-813 vs [18F]DPA-814, [11C]DPA-713 vs [18F]DPA-714
  higher difference EAE vs control compared with the fluorinated compound: 2.5 folds
[2]
  higher uptake (AUC of time activity curve) in the spinal cord of EAE rats compared to CFA control: 67%
